Source: US20110288017A1, “APO-LIPOPROTEIN PROPEPTIDE” (priority 2010, published 2011)

Columns and labels:
[1] = Modified Western blot: native PAGE gel of liver lysate incubated with fluorescent propeptide; format: binding; settings: young mouse (3 months) liver lysate, FIG. 5 Arrow 1
Text: (§1) Rat liver tissue from an old (23 months) rat and mouse liver tissue from a young mouse (3 months) was obtained from Dr. Eric R. Blough (Biology department, Marshall University, Huntington, W. Va.). 0.104 g of liver tissue from the young mouse and 0.20 g of tissue from the old rat were placed in separate microcentrifuge tubes and washed thoroughly with phosphate buffered saline (“PBS”).
(§2) Rat liver tissue was lysed using CellLytic-MT lysis buffer (Sigma) following the procedure provided from Sigma. Along with the lysis buffer, a protease inhibitor cocktail containing pepstatin, aprotinin, and leupeptin was added. The samples were then centrifuged for 15 minutes at 14,000 rpm. Supernatant containing the cellular proteins was pulled from the samples and centrifuged for another 10 minutes.
(§3) Proteins from the lysate were separated by Native PAGE on a 12% polyacrylamide gel. The gel was run using Tris/Glycine running buffer for one hour at 200 V.
(§4) After protein separation by PAGE was complete, a picture of the gel was taken using an ultraviolet (“UV”) lamp to excite any fluorescent molecules. The UV exposure time was 20 s. The gel was then incubated with the fluorescent labeled Apo AI propeptide in Tris buffered saline with 5% Tween (“TBST”) overnight on a rocking platform. Another picture of the gel was taken using the same UV exposure time as the initial picture. […]

oxysterol receptor LXRβ = target: T1, oxysterol receptor LXRβ (Rattus norvegicus, UniProt Q62755); assay: Peptide bead pull-down from liver lysate, SDS-PAGE, MALDI-TOF peptide mass fingerprint; format: binding; settings: lean Zucker rat liver lysate; peptide attached to benzyloxybenzylbromide resin at N-terminus; Mascot search; FIG. 6
T1 construct: Liver tissue from a lean Zucker rat was lysed; from tissue; host or cells: liver of lean Zucker rat (lysate, CellLytic-MT buffer)
T1 sequence (Q62755 1-446): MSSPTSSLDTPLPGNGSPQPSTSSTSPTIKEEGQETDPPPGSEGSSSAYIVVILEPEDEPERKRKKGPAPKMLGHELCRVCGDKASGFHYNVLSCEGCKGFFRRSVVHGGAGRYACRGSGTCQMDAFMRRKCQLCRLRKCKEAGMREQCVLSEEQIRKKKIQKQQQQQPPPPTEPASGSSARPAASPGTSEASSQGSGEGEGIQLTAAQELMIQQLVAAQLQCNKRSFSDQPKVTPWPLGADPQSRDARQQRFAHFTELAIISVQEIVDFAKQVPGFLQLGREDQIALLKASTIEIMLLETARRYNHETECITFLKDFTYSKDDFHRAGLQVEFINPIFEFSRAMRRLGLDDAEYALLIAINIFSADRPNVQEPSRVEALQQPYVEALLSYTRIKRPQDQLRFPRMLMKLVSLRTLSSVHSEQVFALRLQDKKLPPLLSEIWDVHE
Text: The Apo AI propeptide was attached to benzyloxybenzylbromide resin at its N-terminus. Rat liver tissue was lysed using CellLytic-MT lysis buffer using the procedure outlined above. This buffer may be purchased from Sigma-Aldrich Corp. (“Sigma”) (St. Louis, Mo.). […] The protein lysate was removed and added to the peptide modified beads. The solution was shaken for one hour; the supernatant was then removed leaving only the resin beads. The resin beads were washed three times with PBS, and then 30 μl of gel loading solution was added to the resin beads. The solution was heated at 100° C. for five minutes and then loaded onto a polyacrylamide gel (4-20% polyacrylamide) and separated by SDS-PAGE.
Protein bands of interest were cut from the gel and digested with trypsin overnight following the procedure used at University of California, San Francisco (http://donatello.ucsf.edu/ingel.html). The peptide fragments were analyzed on a Bruker MALDI-TOF mass spectrometer which provided the peptide fragment molecular weight maps of the proteins for protein identification.
Another set of experiments were designed to determine the identity of any proteins capable of binding to the Apo AI propeptide. The Apo AI propeptide, WEFWQQ, was attached to benzyloxybenzylbromide resin beads at its N-terminus. […]

human epithelial cells = assay: Confocal microscopy of epithelial cells treated with fluorescently labeled propeptide; format: cell-based
Text: (§5) A peptide with the amino acid sequence WEFWQQ (corresponding to the rat sequence of the Apo AI propeptide) containing a fluorescein group attached to the N-terminus was custom synthesized by Cambridge biochemical reagents. Synthetic version of the peptide was made using standard Merrifield peptide synthesis techniques (http://en.wikipedia.org/wiki/Peptide_synthesis). Other standard techniques that would apply here would be the use of bacteria to synthesize large quantities of the peptide (http://en.wikipedia.org/wiki/Recombinant_DNA).
(§6) Liver tissue was obtained from lean Zucker rats and placed in liver digest media. The liver digest media was then drained into a conical vial and the liver was placed in another sterile beaker of hepatozyme wash media. Clean gauze was placed at the opening to the conical vials and the liver was washed with the hepatozyme wash media yet again. This process filtered the liver cells into the conical vials. The cells were centrifuged for five minutes at 6000 rpm. The cells were washed thoroughly with hepatozyme wash media and then resuspended in 5% Fetal Bovine Serum, 2 mM glutamine hepatozyme wash medium and pipetted into collagen wells. The collagen well plates were incubated at 37° Celsius and 5% CO2. After 19 hours, the media was replaced with clean, fresh Hepatozyme-SFM (3 mL). The media was further supplemented with L-glutamine (2 mM) after 23 hours. […]

Zucker rat liver cells = assay: Confocal microscopy of liver cells treated with fluorescently labeled propeptide; format: cell-based
Text: as §5, §6

[2] = Modified Western blot: native PAGE gel of liver lysate incubated with fluorescent propeptide; format: binding, rat; settings: FIG. 4
Text: as §1, §2, §3, §4

## WEFWQQ (PROPEP (1)..(6); listed as Rattus norvegicus)
[1]
  fluorescent band after incubation with the peptide: same band as was seen in FIG. 4
Oxysterol receptor LXRβ
  identity of the protein bound to the peptide beads (band at about 45 kDa): identified the protein as the oxysterol receptor LXRβ
Human epithelial cells
  time to entry into cells after peptide application: within seconds
Zucker rat liver cells; Zucker rat liver cells, peptide labeled at N-terminus with fluorescein, FIG. 1
  entry of the propeptide into cells and nucleus (confocal image): clearly entering the cells and entering the nucleus of the cells
Zucker rat liver cells; liver cells, fluorescently labeled peptide
  time to entry into cells after peptide application: within seconds
[2]; old rat (23 months) liver lysate, overnight incubation
  binding to a protein on the gel (new fluorescent band after incubation): binding to a protein on the gel
[2]; old rat liver lysate
  fluorescence of higher molecular weight band (possibly DNA) after peptide incubation: increase in the fluorescence intensity of a higher molecular weight band
